Among the data in DBAASP are MIC values, retold here.

Some test systems named below: Escherichia coli ML-35; Bacillus megaterium; Staphylococcus xylosus; Micrococcus luteus A270; Listeria innocua; Escherichia coli; Pseudomonas aeruginosa; Bacillus subtilis 168; Staphylococcus aureus; Escherichia coli B; Escherichia coli UB1005; Candida albicans.
Holding throughout (experiment): ≥ marks a high value that may be exact or a test limit, other limits are often not marked, values filed in µg/mL are converted to µM
For test [1], the system named is Streptococcus mutans ATCC 25175.
Test [2] has as its system Staphylococcus aureus ATCC 12600.
Test [3] concerns Pseudomonas aeruginosa ATCC 27853.
Test [4] concerns Escherichia coli ATCC 25922.
Test [5] concerns Salmonella enterica subsp. enterica serovar Typhimurium ATCC 14028.
Test [6] relates to Staphylococcus aureus ATCC 25923.
In test [7] the test system is Pseudomonas aeruginosa 253.
The test system of test [8] is Pseudomonas aeruginosa PAO1.
In test [9] the test system is Pseudomonas aeruginosa 910.
Test [10] has as its system Pseudomonas aeruginosa 919.
The test system of test [11] is Escherichia coli DH5alpha.
The test system of test [12] is Candida albicans F7-39/IDE99.
For test [13], the system named is Micrococcus luteus CCM 144.
Test [14] relates to Enterococcus faecalis ATCC 29212.
Test [15] has as its system Pseudomonas aeruginosa H103.
Test [16] has as its system Staphylococcus epidermidis.
Test [17] has as its system Salmonella enterica serovar Typhimurium.
The test system of test [18] is Escherichia coli ATCC 27325.

SMILES strings stand for the structures. Converted amounts (≈) assume the structure as drawn.

Take `CC[C@H](C)[C@H](NC(=O)[C@H](C)NC(=O)CNC(=O)[C@H](Cc1ccccc1)NC(=O)[C@H](CC(C)C)NC(=O)CN)C(=O)N[C@@H](C)C(=O)NCC(=O)N[C@@H](Cc1ccccc1)C(=O)N[C@H](C(=O)N[C@@H](CCCCN)C(=O)N[C@@H](CCCCN)C(=O)NCC(=O)N[C@@H](Cc1c[nH]c2ccccc12)C(=O)N[C@@H](CCCCN)C(=O)NCC(=O)N[C@@H](CCSC)C(=O)N[C@H](C(=O)N[C@@H](CCCCN)C(=O)NCC(N)=O)C(C)C)[C@@H](C)CC` [GLFGAIAGFIKKGWKGMVKG]: the MIC worked out at 1.9 µM (≈ 3.92 µg/mL) in [1], 3.8 µM (≈ 7.85 µg/mL) in [2], 7.6 µM (≈ 15.7 µg/mL) in [3] and 7.6 µM (≈ 15.7 µg/mL) in test [4].
As to `CC[C@H](C)[C@H](NC(=O)[C@H](CCCCN)NC(=O)[C@H](CCCCN)NC(=O)[C@H](CC(C)C)NC(=O)[C@H](CCCCN)NC(=O)[C@H](CCC(N)=O)NC(=O)[C@H](CCCCN)NC(=O)[C@@H](NC(=O)[C@H](CCCCN)NC(=O)[C@H](CC(N)=O)NC(=O)[C@H](CCCN=C(N)N)NC(=O)[C@H](Cc1ccccc1)NC(=O)[C@H](CCCCN)NC(=O)[C@H](CCCN=C(N)N)NC(=O)[C@H](CC(C)C)NC(=O)[C@H](CCCN=C(N)N)NC(=O)[C@H](CCCCN)NC(=O)[C@H](CCCN=C(N)N)NC(=O)[C@H](CC(C)C)NC(=O)CN)[C@@H](C)CC)C(=O)O` [GLRKRLRKFRNKIKQKLKKI], the MIC was 2 µM (≈ 5.1 µg/mL) against Escherichia coli ML-35; 2 µM (≈ 5.1 µg/mL) in [5]; 0.5 µM (≈ 1.28 µg/mL) in [3]; 4 µM (≈ 10.2 µg/mL) in test [4]; 4 µM (≈ 10.2 µg/mL) in the test on Bacillus megaterium; 4 µM (≈ 10.2 µg/mL) in test [6].
Consider `CC[C@H](C)[C@H](N)C(=O)N[C@@H](CC(C)C)C(=O)N[C@@H](CCCCN)C(=O)N[C@@H](Cc1c[nH]c2ccccc12)C(=O)N[C@@H](CCCCN)C(=O)N[C@@H](CCCCN)C(=O)NCC(=O)N[C@@H](Cc1c[nH]c2ccccc12)C(=O)N[C@@H](Cc1c[nH]c2ccccc12)C(=O)N[C@@H](CCCCN)C(=O)N[C@@H](Cc1c[nH]c2ccccc12)C(=O)N[C@@H](Cc1ccccc1)C(=O)N[C@@H](CCCN=C(N)N)C(N)=O` [ILKWKKGWWKWFR], for which the MIC was found to be 8 µM (≈ 14.9 µg/mL) in test [7], 4 µM (≈ 7.45 µg/mL) in test [8], 4 µM (≈ 7.45 µg/mL) in test [9] and 16 µM (≈ 29.8 µg/mL) in [10].
As to `CC[C@H](C)[C@H](N)C(=O)N[C@@H](CC(C)C)C(=O)N[C@@H](CCCCN)C(=O)N[C@@H](Cc1c[nH]c2ccccc12)C(=O)N[C@@H](CCCCN)C(=O)N[C@@H](CCCN=C(N)N)C(=O)N[C@@H](CCCCN)C(=O)N[C@@H](Cc1c[nH]c2ccccc12)C(=O)N[C@@H](Cc1c[nH]c2ccccc12)C(=O)N[C@@H](CCCCN)C(=O)N[C@@H](Cc1c[nH]c2ccccc12)C(=O)N[C@@H](CCCN=C(N)N)C(=O)N[C@@H](CCCN=C(N)N)C(N)=O` [ILKWKRKWWKWRR], the MIC amounted to 4 µM (≈ 7.88 µg/mL) in test [7], 1 µM (≈ 1.97 µg/mL) in test [8], 2 µM (≈ 3.94 µg/mL) in test [9] and 16 µM (≈ 31.5 µg/mL) in test [10].
Turning to `NCCCC[C@H](NC(=O)[C@H](CCCCN)NC(=O)[C@H](CCCCN)NC(=O)[C@H](Cc1ccccc1)NC(=O)[C@H](Cc1ccccc1)NC(=O)[C@H](Cc1ccccc1)NC(=O)[C@H](Cc1ccccc1)NC(=O)[C@H](Cc1ccccc1)NC(=O)[C@H](CCCCN)NC(=O)[C@H](CCCCN)NC(=O)[C@@H](N)CCCCN)C(=O)O` [KKKFFFFFKKK], the MIC is 16 µM (≈ 24.4 µg/mL) in [11] and 4 µM (≈ 6.09 µg/mL) against Staphylococcus xylosus.
For the compound `CC[C@H](C)[C@H](NC(=O)[C@H](CCCCN)NC(=O)[C@H](CCCN=C(N)N)NC(=O)[C@@H](N)CCCCN)C(=O)N[C@@H](CCCCN)C(=O)N[C@@H](CCCN=C(N)N)C(=O)N[C@@H](CCCCN)C(=O)O` [KRKIKRK], the MIC (in test [11]; against Staphylococcus xylosus) was at least 64 µM each time.
`CC(C)C[C@H](NC(=O)[C@@H](NC(=O)[C@@H](NC(=O)[C@H](CC(C)C)NC(=O)[C@H](CC(C)C)NC(=O)[C@H](CO)NC(=O)[C@H](Cc1cnc[nH]1)NC(=O)[C@H](CO)NC(=O)[C@H](CC(C)C)NC(=O)[C@H](CC(C)C)NC(=O)[C@H](CCCCN)NC(=O)[C@H](Cc1ccccc1)NC(=O)[C@H](CC(N)=O)NC(=O)[C@@H](NC(=O)[C@@H]1CCCN1C(=O)[C@H](CC(=O)O)NC(=O)[C@@H](NC(=O)[C@H](CCCN=C(N)N)NC(=O)[C@H](CC(C)C)NC(=O)[C@H](CCCCN)NC(=O)[C@H](Cc1cnc[nH]1)NC(=O)[C@H](C)NC(=O)[C@H](Cc1cnc[nH]1)NC(=O)[C@@H](N)CC(C)C)C(C)C)C(C)C)C(C)C)[C@@H](C)O)C(=O)O` [LHAHKLRVDPVNFKLLSHSLLVTL]: the MIC in the test on Micrococcus luteus A270 is at least 45 µM; with Listeria innocua, 11 µM (≈ 30.3 µg/mL); against Escherichia coli it was 11 µM (≈ 30.3 µg/mL).
With `CC[C@H](C)[C@H](NC(=O)[C@H](C)NC(=O)CNC(=O)[C@H](Cc1c[nH]c2ccccc12)NC(=O)[C@H](CCCCN)NC(=O)[C@@H](N)CC(C)C)C(=O)N[C@@H](CC(C)C)C(=O)N[C@@H](CCCCN)C(=O)N[C@@H](Cc1cnc[nH]1)C(=O)N[C@H](C(=O)N[C@H](C(=O)N[C@@H](CCCCN)C(N)=O)[C@@H](C)CC)[C@@H](C)CC` [LKWGAILKHIIK], the MIC came out at 5.1 µM (≈ 7.24 µg/mL) in [12]; 46.7 µM (≈ 66.3 µg/mL) against Pseudomonas aeruginosa; 3.7 µM (≈ 5.25 µg/mL) with Bacillus subtilis 168; 3.7 µM (≈ 5.25 µg/mL) in test [13]; 11.7 µM (≈ 16.6 µg/mL) against Staphylococcus aureus; 3.7 µM (≈ 5.25 µg/mL) in the test on Escherichia coli B.
For `CC(C)C[C@H](NC(=O)[C@H](C)NC(=O)[C@H](C)NC(=O)CNC(=O)[C@H](Cc1c[nH]c2ccccc12)NC(=O)[C@H](CC(N)=O)NC(=O)[C@@H](N)CC(C)C)C(=O)N[C@@H](CCCCN)C(=O)N[C@@H](Cc1cnc[nH]1)C(=O)N[C@@H](C)C(=O)N[C@@H](C)C(=O)N[C@@H](CCCCN)C(N)=O` [LNWGAALKHAAK], the MIC is at least 100 µM in [12]; above 100 µM in the test with Pseudomonas aeruginosa; at least 100 µM with Bacillus subtilis 168; at least 100 µM in test [13]; above 100 µM against Staphylococcus aureus; at least 100 µM in the test with Escherichia coli B.
Consider `CC[C@H](C)[C@H](NC(=O)[C@H](CCCN=C(N)N)NC(=O)[C@H](Cc1c[nH]c2ccccc12)NC(=O)[C@H](CC(C)C)NC(=O)[C@@H](N)CCCN=C(N)N)C(=O)N[C@H](C(=O)N[C@H](C(=O)N[C@H](C(=O)N[C@@H](CCCN=C(N)N)C(=O)N[C@H](C(=O)N[C@@H](C)C(=O)N[C@@H](CCCN=C(N)N)C(N)=O)C(C)C)[C@@H](C)CC)C(C)C)C(C)C` [RLWRIVVIRVAR], for which the MIC in test [7] was at least 32 µM; in test [14] it was 1.3 µM (≈ 2 µg/mL); in test [8] it was 16 µM (≈ 24.6 µg/mL); in test [15], 5.21 µM (≈ 7.99 µg/mL); against Escherichia coli UB1005, 1.3 µM (≈ 2 µg/mL); in test [16], 0.325 µM (≈ 0.5 µg/mL). The MIC in the test on Candida albicans was 5.21 µM (≈ 7.99 µg/mL); in test [9], at least 32 µM; in test [17], 5.21 µM (≈ 7.99 µg/mL); in test [10] it was at least 32 µM; in [6], 1.3 µM (≈ 2 µg/mL).
For `CC(C)C[C@H](NC(=O)CNC(=O)[C@H](C)NC(=O)[C@H](CCCN=C(N)N)NC(=O)[C@H](CO)NC(=O)[C@H](CO)NC(=O)[C@H](CCCN=C(N)N)NC(=O)[C@@H](N)[C@@H](C)O)C(=O)N[C@@H](CCC(N)=O)C(=O)N[C@@H](Cc1c[nH]c2ccccc12)C(=O)N[C@@H](C)C(=O)N[C@H](C(=O)NCC(=O)N[C@@H](CCCN=C(N)N)C(=O)N[C@H](C(=O)N[C@@H](Cc1cnc[nH]1)C(=O)N[C@@H](CCCN=C(N)N)C(=O)N[C@@H](CC(C)C)C(=O)N[C@@H](CC(C)C)C(=O)N[C@@H](CCCN=C(N)N)C(=O)N[C@@H](CCCCN)C(=O)O)C(C)C)C(C)C` [TRSSRAGLQWAVGRVHRLLRK], in [18], the MIC amounted to 6 µM (≈ 14.7 µg/mL).

Usually MIC stands for the lowest concentration that inhibits growth of the organism. Read a high MIC as weaker potency.
